Source: patent US12263248B2, “Compounds and compositions for intracellular delivery of therapeutic agents” (ModernaTX, Inc., priority 2018, dated 2025)

Key:
[1] = Particle size and polydispersity index of nanoparticle compositions (Zetasizer Nano ZS); assay type: physicochemical
How it was run: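 In 1×PBS, the compositions were sized on a Zetasizer Nano ZS, which also reported their polydispersity index.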

[2] = Encapsulation efficiency of RNA (QUANT-IT RIBOGREEN RNA assay); assay type: physicochemical
How it was run: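 RiboGreen fluorescence (ex ~480, em ~520 nm) compared between intact samples and Triton X-100-lysed samples after 15 min at 37 °C in TE buffer, pH 7.5. Percent free RNA is the blank-corrected intact/disrupted ratio.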

[3] = Apparent (surface) pKa of the LNP formulation (TNS assay); assay type: physicochemical; settings: for pKa: Table 1A
How it was run: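 LNP (0.04 mg/mL mRNA) mixed with TNS reagent in 21 buffers spanning about pH 3-12, in triplicate; fluorescence plotted against pH as sigmoidal curve. Apparent pKa taken as […] curve inflection point; validated in 1× PBS and 20 mM Tris w/8% sucrose.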

[4] = test system: luciferase (Luc) mRNA; assay: Luc expression, whole body bioluminescence after intravenous administration to mice; assay type: in vivo; settings: for Novel lipid/MC3 expression ratio, 6 hr. time point, i.v. / Novel lipid/MC3 ratio, 6 hr. timepoint, i.v.: luciferase, intravenous; for Novel lipid/MC3 expression ratio, 6 hr. time point, i.v.: relative to MC3 formulation; for Total Flux 3 hours / Total Flux 6 hours / Total Flux 24 hours / total flux at 3 hours: mice, 0.5 mg/kg; for Total Flux 3 hours / Total Flux 6 hours / Total Flux 24 hours: Luc mRNA; for Novel lipid/MC3 ratio, 6 hr. timepoint, i.v.: relative to MC3, Table 3G; for Fold increase in total body Luc Flux relative to MC3 at 6 h: Table 3A; for flux measured at 6 h relative to the MC3 formulation: in words; for total flux at 3 hours: comparison in words
How it was run: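 Luc mRNA nanoparticle formulations given intravenously to mice (n=6) at 0.5 mg/kg; whole-body bioluminescence imaged at 3, 6 and 24 h. CD-1 mice received IP D-luciferin (200 μL of 15 mg/mL) 15 min before imaging; total flux quantified by region of interest.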

[5] = Table 1A, lipid:DSPC:cholesterol:PEG-DMG 50:10:38.5:1.5 mol %
[6] = Table 1B, formulated with hEPO mRNA
[7] = Table 1D, for subcutaneous administration, # formulated with hEPO mRNA
[8] = Table 1E, compositions for subcutaneous administration
[9] = Table 1C, compositions for subcutaneous administration
[10] = nanoparticle composition with hEPO mRNA (Table 30)

Row | Compound | PDI ([1]; Table 1A) | Size (nm) [1, 5] [nm] | PDI [1, 6] | Size (nm) [1, 6] [nm] | PDI [1, 7] | Size (nm) [1, 7] [nm] | PDI [1, 8] | Size (nm) [1, 8] [nm] | EE (%) ([2]; Table 1A) | EE (%) [2, 6] [%] | % EE [2, 7] [%] | % EE [2, 8] [%] | pKa [3] | Novel lipid/MC3 expression ratio, 6 hr. time point, i.v. [4] | Total Flux 3 hours ([4]; i.v.) | Total Flux 6 hours ([4]; i.v.) | Total Flux 24 hours ([4]; i.v.) | Fold increase in total body Luc Flux relative to MC3 at 6 h ([4]; i.v. administration) | other results
1 | CCCC/C=C\CCC(CC/C=C\CCCC)OC(=O)CCCCCCCN(CCO)CCCCCCCC(=O)OCCCCCCCCC [Compound 60, (5Z,12Z)-Heptadeca-5,12-dien-9-yl 8-((2-hydroxyethyl)(8-(nonyloxy)-8-oxooctyl)amino)octanoate] | 0.12 | 95.1 | 0.15 | 88.9 | 0.13 | 87.4 | 0.12 | 93.3 | 97.6 | 95.20 | 93.0 | 88 | 6.73 | 3.37 | 7.91E+10 | 9.04E+10 | 2.90E+09 |  | 
2 | CCCCCCCCC(C)OC(=O)CCCCCN(CCO)CCCCCCCC(=O)OC(CCCCCCCC)CCCCCCCC (stereo not drawn) [Compound 122, Heptadecan-9-yl 8-((6-(decan-2-yloxy)-6-oxohexyl)(2-hydroxyethyl)amino)octanoate] | 0.09 | 69.3 | 0.12 | 70.2 |  |  |  |  | 98.2 | 96.27 |  |  | 6.83 | 3.23 | 3.64E+10 | 8.64E+10 | 1.95E+09 |  | PDI [1, 9]: 0.16; Size (nm) [1, 9]: 80.2 nm; % EE [2, 9]: 94.8%; Apparent pKa ([3]; Table 3G): 6.83; Novel lipid/MC3 ratio, 6 hr. timepoint, i.v. [4]: 3.23
3 | CCCCCCCCCOC(=O)CCCCCCCN(CCO)CCCCCCCCCC(=O)OC(CCCCCC)CCCCCC [Compound 147, Tridecan-7-yl 10-((2-hydroxyethyl)(8-(nonyloxy)-8-oxooctyl)amino)decanoate] | 0.130 | 99.5 | 0.22 | 111.9 |  |  |  |  | 88.31 | 91.0 |  |  | 6.66 |  | 3.24E+10 | 4.87E+10 | 3.32E+08 |  | 6 h Lipid/MC3 Avg. Luc Expression ([4]; Table 3C, i.v. administration): 6.68; Fold increase AUC Lipid/MC3 ([4]; Table 3C, i.v. administration): 6.83; AUC (h * p/s) ([4]; Table 3C, i.v. administration, Luc): 5.63E+11 h * p/s
4 | CCCCCCCCCOC(=O)CCCCCCCN(CCCCCCCC(=O)OC(CCCCCCCC)CCCCCCCC)CCCNC(=S)N(C)C [Compound 111, Heptadecan-9-yl 8-((3-(3,3-dimethylthioureido)propyl)(8-(nonyloxy)-8-oxooctyl)amino)octanoate] | 0.22 | 116.7 | 0.13 | 93.3 | 0.12 | 94.5 | 0.16 | 88.9 | 76.8 | 91.23 | 90.9 | 88 | 7.13 | 2.59 | 1.89E+10 | 3.57E+10 | 8.86E+08 |  | i.v. Lipid/MC3 0.5 mpk, Luc, 6 h ([4]; Table 3B, i.v., 0.5 mpk, 6 h): 2.6
5 | CCCCCCCCC(CC)OC(=O)CCCN(CCO)CCCCCCCC(=O)OC(CCCCCCCC)CCCCCCCC (stereo not drawn) [Compound 72, Heptadecan-9-yl 8-((2-hydroxyethyl)(4-oxo-4-(undecan-3-yloxy)butyl)amino)octanoate] | 0.10 | 76.8 |  |  |  |  |  |  | 94.69 |  |  |  | 6.29 | 1.52 | 1.73E+10 | 4.07E+10 | 7.12E+08 |  | PDI [1, 9]: 0.10; Size (nm) [1, 9]: 77.3 nm; % EE [2, 9]: 94.9%; Novel lipid/MC3 ratio, 6 hr. timepoint, i.v. [4]: 1.52
6 | CCCCCCCCC(CCC)OC(=O)CCCCCCCN(CCO)CCCCCCCC(=O)OC(CCCCCCCC)CCCCCCCC (stereo not drawn) [Compound 50, dodecan-4-yl 8-((8-(heptadecan-9-yloxy)-8-oxooctyl)(2-hydroxyethyl)amino)octanoate] | 0.100 | 68.4 |  |  |  |  |  |  | 97.33 |  |  |  | 6.42 |  | 3.81E+10 | 7.49E+10 | 5.02E+08 | 6.81 | flux measured at 6 h relative to the MC3 formulation ([4]; i.v. administration): higher flux than MC3 formulations
7 | CCCCCCCCC(CCCCCCCC)OC(=O)CCCCCCCN(CCO)CCCCCC(=O)OC(CCCCCCCC)C1CC1 (stereo not drawn) [Compound 128, Heptadecan-9-yl 8-((6-((1-cyclopropylnonyl)oxy)-6-oxohexyl)(2-hydroxyethyl)amino)octanoate] | 0.22 | 104.1 |  |  |  |  | 0.13 | 73.9 | 92.45 |  |  | 94 | 6.56 | 4.05 | 1.04E+11 | 8.99E+10 | 1.00E+09 | 4.05 | total flux at 3 hours ([4]; i.v.): highest
8 | CCCC/C=C\CCC(CC/C=C\CCCC)OC(=O)CCCCCCCN(CCO)CCCCCC(=O)OCCCCCCCCCCC [Compound 61, (5Z,12Z)-heptadeca-5,12-dien-9-yl 8-((2-hydroxyethyl)(6-oxo-6-(undecyloxy)hexyl)amino)octanoate] | 0.15 | 82.1 |  |  |  |  | 0.08 | 80.0 | 97.40 |  |  | 96 | 6.70 | 2.31 | 6.54E+10 | 6.20E+10 | 1.78E+09 |  | 
9 | CCCCCCCCC(C)OC(=O)CCCCCCCN(CCO)CCCCCCCC(=O)OC(CCCCCCCC)CCCCCCCC (stereo not drawn) [Compound 48, decan-2-yl 8-((8-(heptadecan-9-yloxy)-8-oxooctyl)(2-hydroxyethyl)amino)octanoate] | 0.092 | 82.3 |  |  | 0.09 | 79.8 |  |  | 96.55 |  | 96.2 |  | 6.68 |  | 8.73E+10 | 1.10E+11 | 2.92E+09 | 10.0 | PDI [1, 10]: 0.176; Size ([1]; nanoparticle composition with hEPO mRNA, standard MC3 formulation (Table 30)): 70.6 nm; EE [2, 10]: 91.92%; Lipid/MC3 Luc expression ([4]; 0.5 mpk dose to mouse, 6 hours after administration): 10.0; flux measured at 6 h relative to the MC3 formulation ([4]; i.v. administration): ten times higher; total flux at 3 hours ([4]; i.v.): highest
